In US6710080B2, “Substituted 2-dialkylaminoalkylbiphenyl derivatives” (Gruenenthal GmbH, priority 1999, dated 2004):
Where a name gives a salt, the structure may show the parent alone.

Tests used:
[1] = system: phenylquinone-induced writhing in mice; assay: Writhing test in mice; type: in vivo; conditions: Mus musculus, male NMRI mice; for inhibition at 10 mg/kg: 10 mg/kg intravenously 10 minutes before phenylquinone i.p., writhing counted 5-20 minutes after phenylquinone, read-out: % Inhibition of the writhing reaction with 10 mg/kg intravenously; for ED50: iv, intravenously, regression analysis of dose-dependent decrease in writhing reactions
Protocol: The analgesic activity was investigated on phenylquinone-induced writhing in mice (modified by I. C. Hendershot, J. Forsaith, J. Pharmacol. Exp. Ther. 125, 237-240 (1959)). Male NMRI mice weighing 25-30 g were used for this. Groups of 10 animals per dose of substance received 0.3 ml/mouse of a 0.02% aqueous solution of phenylquinone (phenylbenzoquinone, Sigma, Deisenhofen; preparation of the solution with addition of 5% ethanol and storage in a water bath at 45° C.) as an intraperitoneal administration 10 minutes after intravenous administration of the test substances. The animals were placed individually in observation cages. The number of pain-induced extension movements (so-called writhing reactions=straightening of the body with stretching out of the hind extremities) 5-20 minutes after the administration of phenylquinone was counted by means of a push-button counter. Animals which receive only physiological saline solution were also run as a control. All the substances were tested in the standard dosage of 10 mg/kg. The percentage inhibition (% inhibition) of the writhing reaction by a substance was calculated in accordance with the following equation: [formula]
For some substances, the ED50 values with 95% confidence limits of the writhing reaction were calculated from the dose-dependent decrease in the writhing reactions compared with phenylquinone control groups investigated in parallel by means of regression analysis (evaluation program of Martens EDV Service, Eckental Germany).

Compound	inhibition at 10 mg/kg [1]	ED50 [1]	melting point
COc1cccc(-c2ccccc2CN(C)C)c1 [Example 1, (3′-Methoxybiphenyl-2-ylmethyl)dimethylamine hydrochloride]	53%	–	–
CN(C)Cc1ccccc1-c1ccc(Cl)cc1.Cl [Example 2, (4′-Chlorobiphenyl-2-ylmethyl)dimethylamine hydrochloride]	89%	4.55 mg/kg	–
CN(C)Cc1ccccc1-c1cccc(O)c1.Cl [Example 3, 2′-Dimethylaminomethylbiphenyl-3-ol hydrochloride]	100%	0.24 mg/kg	–
COc1ccccc1-c1ccccc1CN(C)C.Cl [Example 4, (2′-Methoxybiphenyl-2-ylmethyl)dimethylamine hydrochloride]	75%	3.95 mg/kg	–
CN(C)Cc1ccccc1-c1cccc(Cl)c1.Cl [Example 5, (3′-Chlorobiphenyl-2-ylmethyl)dimethylamine hydrochloride]	68%	4.31 mg/kg	–
CN(C)Cc1ccccc1-c1ccccc1F.Cl [Example 6, (2′-Fluorobiphenyl-2-ylmethyl)dimethylamine hydrochloride]	88%	4.26 mg/kg	–
CN(C)Cc1ccccc1-c1cccc(F)c1.Cl [Example 7, (3′-Fluorobiphenyl-2-ylmethyl)dimethylamine hydrochloride]	90%	2.55 mg/kg	–
CN(C)Cc1ccccc1-c1ccc(F)cc1.Cl [Example 8, (4′-Fluorobiphenyl-2-ylmethyl)dimethylamine hydrochloride]	67%	7.15 mg/kg	–
CN(C)Cc1ccccc1-c1ccc(F)c(Cl)c1.Cl [Example 9, (3′-Chloro-4′-fluorobiphenyl-2-ylmethyl)dimethylamine hydrochloride]	89%	2.32 mg/kg	–
COc1cccc(-c2ccccc2CCN(C)C)c1.Cl [Example 10, (3′-Methoxybiphenyl-2-ylethyl)dimethylamine hydrochloride]	100%	1.7 mg/kg	–
Cc1cc2c(-c3ccccc3CN(C)C)cccc2o1 [Example 11, Dimethyl-[2-(2-methylbenzofuran-4-yl)benzyl]amine hydrochloride]	74%	–	–
CN(C)Cc1ccccc1-c1ccccc1C=O.Cl [Example 12, 2′-Dimethylaminomethylbiphenyl-2-carbaldehyde hydrochloride]	89%	1.74 mg/kg	–
CN(C)Cc1ccccc1-c1cccc(C(F)F)c1.Cl [Example 13, (3′-Difluoromethylbiphenyl-2-ylmethyl)dimethylamine hydrochloride]	81%	5.3 mg/kg	–
CN(C)Cc1ccccc1-c1cccc(C=O)c1.Cl [Example 14, 2′-Dimethylaminomethylbiphenyl-3-carbaldehyde hydrochloride]	100%	2.28 mg/kg	–
CN(C)Cc1ccccc1-c1ccccc1.Cl [Example 15, biphenyl-2-ylmethyldimethylamine hydrochloride]	52%	3.66 mg/kg	–
CN(C)Cc1ccccc1-c1ccc(Cl)c(Cl)c1.Cl [Example 16, (3′,4′-Dichlorobiphenyl-2-ylmethyl)dimethylamine hydrochloride]	89%	4.59 mg/kg	–
CN(C)Cc1ccccc1-c1cc(Cl)cc(Cl)c1 [Example 17, (3′,5′-Dichlorobiphenyl-2-ylmethyl)dimethylamine hydrochloride]	90%	–	–
CN(C)Cc1ccccc1-c1ccc([N+](=O)[O-])c(C(F)(F)F)c1 [Example 18, Dimethyl-(4′-nitro-3′-trifluoromethylbiphenyl-2-ylmethyl)amine hydrochloride]	83%	–	–
CN(C)Cc1ccccc1-c1ccc(F)c(F)c1 [Example 19, (3′,4′-Difluorobiphenyl-2-ylmethyl)dimethylamine hydrochloride]	86%	–	–
CN(C)Cc1ccccc1-c1ccc(F)c(C(F)(F)F)c1.Cl [Example 20, (4′-Fluoro-3′-trifluoromethylbiphenyl-2-ylmethyl)dimethyl-amine hydrochloride]	83%	4.99 mg/kg	–
COc1cc(-c2ccccc2CN(C)C)ccc1Cl.Cl [Example 21, (4′-Chloro-3′-methoxybiphenyl-2-ylmethyl)dimethylamine hydrochloride]	53%	6.78 mg/kg	–
CC(=O)Nc1ccc(-c2ccccc2CN(C)C)cc1OC(F)(F)F.Cl [Example 22, N-(2′-Dimethylaminomethyl-3-trifluoromethoxybiphenyl-4-yl)acetamide hydrochloride]	76%	6.05 mg/kg	182 °C

Compound	inhibition at 10 mg/kg [1]	ED50 [1]	melting point
CC(C)Oc1cccc(-c2ccccc2CN(C)C)c1 [Example 23, (3′-Isopropoxybiphenyl-2-ylmethyl)dimethylamine hydrochloride]	97%	–	–
CN(C)CCc1ccccc1-c1cccc(O)c1.Cl [Example 24, 2′-(2-Dimethylaminoethyl)biphenyl-3-ol hydrochloride]	99%	2.27 mg/kg	–
CN(C)Cc1ccccc1-c1ccc(Cl)c(O)c1 [Example 25, 4-Chloro-2′-dimethylaminomethylbiphenyl-3-ol hydrochloride]	74%	–	–
CN(C)Cc1ccccc1-c1ccc2[nH]ccc2c1 [Example 26, [2-(1H-Indol-5-yl)benzyl]dimethylamine]	100%	0.75 mg/kg	–
CN(C)Cc1ccccc1-c1ccc(S(C)(=O)=O)cc1 [Example 27, (4′-Methanesulfonylbiphenyl-2-ylmethyl)dimethylamine hydrochloride]	89%	–	–
CN(C)Cc1ccccc1-c1ccc(Cl)cc1Cl [Example 28, (2′,4′-Dichlorobiphenyl-2-ylmethyl)dimethylamine hydrochloride]	90%	–	–
CN(C)Cc1ccccc1-c1cccc(F)c1F.Cl [Example 29, (2′,3′-Difluorobiphenyl-2-ylmethyl)dimethylamine hydrochloride]	83%	5.71 mg/kg	–
CN(C)Cc1ccccc1-c1cc(F)ccc1F [Example 30, (2′,5′-Difluorobiphenyl-2-ylmethyl)dimethylamine hydrochloride]	89%	–	–
CN(C)Cc1ccccc1-c1ccc2c(c1)OCO2 [Example 31, (2-Benzo [1,3]dioxol-5-ylbenzyl)dimethylamine hydrochloride]	94%	–	–
CC(=O)c1cccc(-c2ccccc2CCN(C)C)c1 [Example 32, 1-[2′-(2-Dimethylaminoethyl)biphenyl-3-yl]ethanone hydrochloride]	98%	–	–
COc1ccc(-c2ccccc2CCN(C)C)cc1OC [Example 33, [2-(3′,4′-Dimethoxybiphenyl-2-yl)ethyl]dimethylamine hydrochloride]	89%	–	–
CC(C)Oc1cccc(-c2ccccc2CCN(C)C)c1 [Example 34, [2-(3′-Isopropoxybiphenyl-2-yl)ethyl]dimethylamine hydrochloride]	80%	–	–
COc1cc(-c2ccccc2CCN(C)C)ccc1Cl [Example 35, [2-(4′-Chloro-3′-methoxybiphenyl-2-yl)ethyl]dimethylamine hydrochloride]	88%	–	–
CN(C)CCc1ccccc1-c1ccc(Cl)c(O)c1 [Example 36, 4-Chloro-2′-(2-dimethylaminoethyl)biphenyl-3-ol hydrochloride]	93%	–	–
CN(C)Cc1ccccc1-c1cccc([N+](=O)[O-])c1 [Example 37, Dimethyl-(3′-nitrobiphenyl-2-ylmethyl)amine hydrochloride]	60%	–	–
CN(C)Cc1ccccc1-c1ccc(N)c(O)c1 [Example 38, 4-Amino-2′-dimethylaminomethylbiphenyl-3-ol dihydrochloride]	65%	–	–
CN(C)Cc1ccccc1-c1cc(F)cc(F)c1 [Example 39, (3′,5′-Difluorobiphenyl-2-ylmethyl)dimethylamine hydrochloride]	80%	–	–
COc1ccc(OC)c(-c2ccccc2CN(C)C)c1 [Example 40, (2′,5′-Dimethoxybiphenyl-2-ylmethyl)dimethylamine hydrochloride]	57%	–	–
CN(C)Cc1ccccc1-c1cc(OC(F)(F)F)ccc1N [Example 41, 2′-Dimethylaminomethyl-5-trifluoromethoxybiphenyl-2-ylamine dihydrochloride]	56%	–	–
CC(=O)Nc1ccc(OC(F)(F)F)cc1-c1ccccc1CN(C)C [Example 42, N-(2′-Dimethylaminomethyl-5-trifluoromethoxybiphenyl-2-yl)acetamide hydrochloride]	44%	–	–
CN(C)Cc1ccccc1-c1cc(Cl)c(N)c(Cl)c1 [Example 43, 3,5-Dichloro-2′-dimethylaminomethyl-biphenyl-4-ylamine hydrochloride]	99%	–	–
